Reference: ChEMBL document CHEMBL3785084, “Rational modification of the lead molecule: Enhancement in the anticancer and dihydrofolate reductase inhibitory activity” (Bioorg Med Chem Lett, 2016)
Calls of active or inactive are those of the source. The rule behind the calls is not given here.

How the values were obtained:
Dihydrofolate reductase = molecular target: T1, Dihydrofolate reductase (Homo sapiens, UniProt P00374); assay: Inhibition of human DHFR assessed as conversion of dihydrofolic acid to tetrahydrfolic acid by enzyme immunoassay in presence of NADPH
T1 sequence (P00374 whole entry): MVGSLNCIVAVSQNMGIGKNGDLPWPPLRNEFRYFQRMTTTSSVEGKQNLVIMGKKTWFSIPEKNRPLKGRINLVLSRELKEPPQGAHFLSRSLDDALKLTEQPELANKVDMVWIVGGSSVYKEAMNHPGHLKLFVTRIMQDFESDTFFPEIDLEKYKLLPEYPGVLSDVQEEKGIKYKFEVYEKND

OVCAR-3 = conditions: Homo sapiens, 10^-5 M
Description: Cytotoxicity against human OVCAR3 cells assessed as tumor growth inhibition at 10^-5 M after 48 hrs by sulforhodamine B assay

SK-OV-3 = conditions: Homo sapiens, 10^-5 M
Description: Cytotoxicity against human SKOV3 cells assessed as tumor growth inhibition at 10^-5 M after 48 hrs by sulforhodamine B assay

HT-29 = conditions: Homo sapiens, 10^-5 M
Description: Cytotoxicity against human HT-29 cells assessed as tumor growth inhibition at 10^-5 M after 48 hrs by sulforhodamine B assay

SW-620 = conditions: Homo sapiens, 10^-5 M
Description: Cytotoxicity against human SW620 cells assessed as tumor growth inhibition at 10^-5 M after 48 hrs by sulforhodamine B assay

HCT-15 = conditions: Homo sapiens, 10^-5 M
Description: Cytotoxicity against human HCT15 cells assessed as tumor growth inhibition at 10^-5 M after 48 hrs by sulforhodamine B assay

TK-10 = conditions: Homo sapiens, 10^-5 M
Description: Cytotoxicity against human TK10 cells assessed as tumor growth inhibition at 10^-5 M after 48 hrs by sulforhodamine B assay

HCT-116 = conditions: Homo sapiens, 10^-5 M
Description: Cytotoxicity against human HCT116 cells assessed as tumor growth inhibition at 10^-5 M after 48 hrs by sulforhodamine B assay

HL-60(TB) = conditions: Homo sapiens, 10^-5 M
Description: Cytotoxicity against human HL-60(TB) cells assessed as tumor growth inhibition at 10^-5 M after 48 hrs by sulforhodamine B assay

MOLT-4 = conditions: Homo sapiens, 10^-5 M
Description: Cytotoxicity against human MOLT4 cells assessed as tumor growth inhibition at 10^-5 M after 48 hrs by sulforhodamine B assay

UACC-257 = conditions: Homo sapiens, 10^-5 M
Description: Cytotoxicity against human UACC257 cells assessed as tumor growth inhibition at 10^-5 M after 48 hrs by sulforhodamine B assay

OVCAR-8 = conditions: Homo sapiens, 10^-5 M
Description: Cytotoxicity against human OVCAR8 cells assessed as tumor growth inhibition at 10^-5 M after 48 hrs by sulforhodamine B assay

HOP-62 = conditions: Homo sapiens, 10^-5 M
Description: Cytotoxicity against human HOP62 cells assessed as tumor growth inhibition at 10^-5 M after 48 hrs by sulforhodamine B assay

CAKI-1 = conditions: Homo sapiens, 10^-5 M
Description: Cytotoxicity against human Caki1 cells assessed as tumor growth inhibition at 10^-5 M after 48 hrs by sulforhodamine B assay

BT-549 = conditions: Homo sapiens, 10^-5 M
Description: Cytotoxicity against human BT549 cells assessed as tumor growth inhibition at 10^-5 M after 48 hrs by sulforhodamine B assay

SF-295 = conditions: Homo sapiens, 10^-5 M
Description: Cytotoxicity against human SF295 cells assessed as tumor growth inhibition at 10^-5 M after 48 hrs by sulforhodamine B assay

HOP-92 = conditions: Homo sapiens, 10^-5 M
Description: Cytotoxicity against human HOP92 cells assessed as tumor growth inhibition at 10^-5 M after 48 hrs by sulforhodamine B assay

UACC-62 = conditions: Homo sapiens, 10^-5 M
Description: Cytotoxicity against human UACC62 cells assessed as tumor growth inhibition at 10^-5 M after 48 hrs by sulforhodamine B assay

SR = conditions: Homo sapiens, 10^-5 M
Description: Cytotoxicity against human SR cells assessed as tumor growth inhibition at 10^-5 M after 48 hrs by sulforhodamine B assay

MDA-MB-468 = conditions: Homo sapiens, 10^-5 M
Description: Cytotoxicity against human MDA-MB-468 cells assessed as tumor growth inhibition at 10^-5 M after 48 hrs by sulforhodamine B assay

CCRF-CEM = conditions: Homo sapiens, 10^-5 M
Description: Cytotoxicity against human CCRF-CEM cells assessed as tumor growth inhibition at 10^-5 M after 48 hrs by sulforhodamine B assay

SNB-75 = conditions: Homo sapiens, 10^-5 M
Description: Cytotoxicity against human SNB75 cells assessed as tumor growth inhibition at 10^-5 M after 48 hrs by sulforhodamine B assay

786-0 = conditions: Homo sapiens, 10^-5 M
Description: Cytotoxicity against human 786-0 cells assessed as tumor growth inhibition at 10^-5 M after 48 hrs by sulforhodamine B assay

COLO 205 = conditions: Homo sapiens, 10^-5 M
Description: Cytotoxicity against human COLO205 cells assessed as tumor growth inhibition at 10^-5 M after 48 hrs by sulforhodamine B assay

T47D = conditions: Homo sapiens, 10^-5 M
Description: Cytotoxicity against human T47D cells assessed as tumor growth inhibition at 10^-5 M after 48 hrs by sulforhodamine B assay

PC-3 = conditions: Homo sapiens, 10^-5 M
Description: Cytotoxicity against human PC3 cells assessed as tumor growth inhibition at 10^-5 M after 48 hrs by sulforhodamine B assay

OVCAR-5 = conditions: Homo sapiens, 10^-5 M
Description: Cytotoxicity against human OVCAR5 cells assessed as tumor growth inhibition at 10^-5 M after 48 hrs by sulforhodamine B assay

SK-MEL-2 = conditions: Homo sapiens, 10^-5 M
Description: Cytotoxicity against human SK-MEL-2 cells assessed as tumor growth inhibition at 10^-5 M after 48 hrs by sulforhodamine B assay

IGROV-1 = conditions: Homo sapiens, 10^-5 M
Description: Cytotoxicity against human IGROV1 cells assessed as tumor growth inhibition at 10^-5 M after 48 hrs by sulforhodamine B assay

KM12 = conditions: Homo sapiens, 10^-5 M
Description: Cytotoxicity against human KM12 cells assessed as tumor growth inhibition at 10^-5 M after 48 hrs by sulforhodamine B assay

NCI-H226 = conditions: Homo sapiens, 10^-5 M
Description: Cytotoxicity against human NCI-H226 cells assessed as tumor growth inhibition at 10^-5 M after 48 hrs by sulforhodamine B assay

M14 = conditions: Homo sapiens, 10^-5 M
Description: Cytotoxicity against human M14 cells assessed as tumor growth inhibition at 10^-5 M after 48 hrs by sulforhodamine B assay

K562 = conditions: Homo sapiens, 10^-5 M
Description: Cytotoxicity against human K562 cells assessed as tumor growth inhibition at 10^-5 M after 48 hrs by sulforhodamine B assay

Malme-3M = conditions: Homo sapiens, 10^-5 M
Description: Cytotoxicity against human MALME-3M cells assessed as tumor growth inhibition at 10^-5 M after 48 hrs by sulforhodamine B assay

U-251 = conditions: Homo sapiens, 10^-5 M
Description: Cytotoxicity against human U251 cells assessed as tumor growth inhibition at 10^-5 M after 48 hrs by sulforhodamine B assay

Hs-578T = conditions: Homo sapiens, 10^-5 M
Description: Cytotoxicity against human Hs 578T cells assessed as tumor growth inhibition at 10^-5 M after 48 hrs by sulforhodamine B assay

DU-145 = conditions: Homo sapiens, 10^-5 M
Description: Cytotoxicity against human DU145 cells assessed as tumor growth inhibition at 10^-5 M after 48 hrs by sulforhodamine B assay

MCF7 = conditions: Homo sapiens, 10^-5 M
Description: Cytotoxicity against human MCF7 cells assessed as tumor growth inhibition at 10^-5 M after 48 hrs by sulforhodamine B assay

SNB-19 = conditions: Homo sapiens, 10^-5 M
Description: Cytotoxicity against human SNB19 cells assessed as tumor growth inhibition at 10^-5 M after 48 hrs by sulforhodamine B assay

SF-268 = conditions: Homo sapiens, 10^-5 M
Description: Cytotoxicity against human SF268 cells assessed as tumor growth inhibition at 10^-5 M after 48 hrs by sulforhodamine B assay

EKVX = conditions: Homo sapiens, 10^-5 M
Description: Cytotoxicity against human EKVX cells assessed as tumor growth inhibition at 10^-5 M after 48 hrs by sulforhodamine B assay

NCI/ADR-RES = conditions: Homo sapiens, 10^-5 M
Description: Cytotoxicity against human NCI-ADR-RES cells assessed as tumor growth inhibition at 10^-5 M after 48 hrs by sulforhodamine B assay

OVCAR-4 = conditions: Homo sapiens, 10'-5 M
Description: Cytotoxicity against human OVCAR4 cells assessed as tumor growth inhibition at 10^-5 M after 48 hrs by sulforhodamine B assay

NCI-H460 = conditions: Homo sapiens, 10^-5 M
Description: Cytotoxicity against human NCI-H460 cells assessed as tumor growth inhibition at 10^-5 M after 48 hrs by sulforhodamine B assay

NCI-H23 = conditions: Homo sapiens, 10^-5 M
Description: Cytotoxicity against human NCI-H23 cells assessed as tumor growth inhibition at 10^-5 M after 48 hrs by sulforhodamine B assay

UO-31 = conditions: Homo sapiens, 10^-5 M
Description: Cytotoxicity against human UO31 cells assessed as tumor growth inhibition at 10^-5 M after 48 hrs by sulforhodamine B assay

SF-539 = conditions: Homo sapiens, 10^-5 M
Description: Cytotoxicity against human SF539 cells assessed as tumor growth inhibition at 10^-5 M after 48 hrs by sulforhodamine B assay

ACHN = conditions: Homo sapiens, 10^-5 M
Description: Cytotoxicity against human ACHN cells assessed as tumor growth inhibition at 10^-5 M after 48 hrs by sulforhodamine B assay

SN12C = conditions: Homo sapiens, 10^-5 M
Description: Cytotoxicity against human SN12C cells assessed as tumor growth inhibition at 10^-5 M after 48 hrs by sulforhodamine B assay

SK-MEL-5 = conditions: Homo sapiens, 10^-5 M
Description: Cytotoxicity against human SK-MEL-5 cells assessed as tumor growth inhibition at 10^-5 M after 48 hrs by sulforhodamine B assay

SK-MEL-28 = conditions: Homo sapiens, 10^-5 M
Description: Cytotoxicity against human SK-MEL-28 cells assessed as tumor growth inhibition at 10^-5 M after 48 hrs by sulforhodamine B assay

HCC 2998 = conditions: Homo sapiens, 10^-5 M
Description: Cytotoxicity against human HCC2998 cells assessed as tumor growth inhibition at 10^-5 M after 48 hrs by sulforhodamine B assay

RPMI-8226 = conditions: Homo sapiens, 10^-5 M
Description: Cytotoxicity against human RPMI8226 cells assessed as tumor growth inhibition at 10^-5 M after 48 hrs by sulforhodamine B assay

MDA-MB-231 = conditions: Homo sapiens, 10^-5 M
Description: Cytotoxicity against human MDA-MB-231 cells assessed as tumor growth inhibition at 10^-5 M after 48 hrs by sulforhodamine B assay

RXF 393 = conditions: Homo sapiens, 10^-5 M
Description: Cytotoxicity against human RXF393 cells assessed as tumor growth inhibition at 10^-5 M after 48 hrs by sulforhodamine B assay

MDA-MB-435 = conditions: Homo sapiens, 10^-5 M
Description: Cytotoxicity against human MDA-MB-435 cells assessed as tumor growth inhibition at 10^-5 M after 48 hrs by sulforhodamine B assay

LOX IMVI = conditions: Homo sapiens, 10^-5 M
Description: Cytotoxicity against human LOXIMVI cells assessed as tumor growth inhibition at 10^-5 M after 48 hrs by sulforhodamine B assay

A549 = conditions: Homo sapiens, 10^-5 M
Description: Cytotoxicity against human A549 cells assessed as tumor growth inhibition at 10^-5 M after 48 hrs by sulforhodamine B assay

A498 = conditions: Homo sapiens, 10^-5 M
Description: Cytotoxicity against human A498 cells assessed as tumor growth inhibition at 10^-5 M after 48 hrs by sulforhodamine B assay

NCI-H522 = conditions: Homo sapiens, 10^-5 M
Description: Cytotoxicity against human NCI-H522 cells assessed as tumor growth inhibition at 10^-5 M after 48 hrs by sulforhodamine B assay

Question: With `O=C1Nc2ccc([N+](=O)[O-])cc2/C1=C/c1cn(CC(O)Cn2cc(/C=C3\C(=O)Nc4ccc([N+](=O)[O-])cc43)c3ccccc32)c2ccccc12` (stereo unspecified) as the compound, how does the IC50 (Dihydrofolate reductase) read?
Answer: The IC50 was 0.7 µM.

Question: With `O=C1NC(=S)NC(=O)C1=Cc1cn(CC(O)Cn2cc(C=C3C(=O)NC(=S)NC3=O)c3ccccc32)c2ccccc12` as the compound, how does the IC50 (Dihydrofolate reductase) read?
Answer: Its IC50 is 7 µM.

Question: Which results are given for `COc1cc(Cc2cnc(N)nc2N)cc(OC)c1OC`?
Answer: TGI (OVCAR-3): inactive; TGI (SK-OV-3): inactive; TGI (HT-29): inactive; TGI (SW-620): inactive; TGI (HCT-15): inactive; TGI (TK-10): inactive; TGI (HCT-116): inactive; TGI (HL-60(TB)): inactive; TGI (MOLT-4): inactive; TGI (UACC-257): inactive; TGI (OVCAR-8): inactive; TGI (HOP-62): inactive; TGI (CAKI-1): inactive; TGI (BT-549): inactive; TGI (SF-295): inactive; TGI (HOP-92): inactive; TGI (UACC-62): inactive; TGI (SR): inactive; TGI (MDA-MB-468): inactive; TGI (CCRF-CEM): inactive; TGI (SNB-75): inactive; TGI (786-0): inactive; TGI (COLO 205): inactive; TGI (T47D): inactive; TGI (PC-3): inactive; TGI (OVCAR-5): inactive; TGI (SK-MEL-2): inactive; TGI (IGROV-1): inactive; TGI (KM12): inactive; TGI (NCI-H226): inactive; TGI (M14): inactive; TGI (K562): inactive; TGI (Malme-3M): inactive; TGI (U-251): inactive; TGI (Hs-578T): inactive; TGI (DU-145): inactive; TGI (MCF7): inactive; TGI (SNB-19): inactive; TGI (SF-268): inactive; TGI (EKVX): inactive; TGI (NCI/ADR-RES): inactive; TGI (OVCAR-4): inactive; TGI (NCI-H460): inactive; TGI (NCI-H23): inactive; TGI (UO-31): inactive; TGI (SF-539): inactive; TGI (ACHN): inactive; TGI (SN12C): inactive; TGI (SK-MEL-5): inactive; TGI (SK-MEL-28): inactive; TGI (HCC 2998): inactive; TGI (RPMI-8226): inactive; TGI (MDA-MB-231): inactive; TGI (RXF 393): inactive; TGI (MDA-MB-435): inactive; TGI (LOX IMVI): inactive; TGI (A549): inactive; TGI (A498): inactive; TGI (NCI-H522): inactive
